Results on twelve compounds are retold here after ChEMBL document CHEMBL1135088, “Minimal structural requirements for agonist activity of PAR-2 activating peptides” (Bioorg Med Chem Lett, 2002).

The term EC50 denotes the midpoint of the concentration-response curve.

SMILES strings stand for the structures. Non-standard residues stand in square brackets, D forms with d. Residues, ends and D or L forms follow the SMILES beside them. *: point of attachment. Arg(NO2) = N=C(NCCC[C@H](N)C(=O)O)N[N+](=O)[O-]; Bz = O=C(c1ccccc1)*

The first experiment is filed under the species Rattus norvegicus. The experiment is described as follows: In vitro vasorelaxant activity in male wistar rat thoracic aorta by classical rat aorta relaxation assay; n.a.=not active up to a concentration of 3e-4 M. The class given is functional.
Regarding `CC(C)C[C@H](NC(=O)[C@H](CCC/N=C(\N)N[N+](=O)[O-])NC(=O)C1CCCCC1)C(N)=O`, the concentration for a half-maximal effect (EC50) result is “Not Active”.
On the same count and under the same terms, for `CC(C)C[C@H](NC(=O)[C@H](CCC/N=C(\N)N[N+](=O)[O-])NC(=O)c1ccc(C(F)(F)F)cc1)C(N)=O` the value was “Not Active”.
On to `CC(C)C[C@H](NC(=O)[C@H](CCC/N=C(\N)N[N+](=O)[O-])NC(=O)c1ccc(Cl)cc1)C(N)=O`, for which the EC50 entry was “Not Active”.
The same measure, in the same setting: for `CC(C)C[C@H](NC(=O)[C@H](CCC/N=C(\N)N[N+](=O)[O-])NC(=O)c1ccc([N+](=O)[O-])cc1)C(N)=O` the value was “Not Active”.
For `CC(C)C[C@H](NC(=O)[C@H](CCC/N=C(\N)N[N+](=O)[O-])NS(=O)(=O)c1ccccc1)C(N)=O`, the EC50 entry is “Not Active”.
In the case of `CSc1ccc(C(=O)N[C@@H](CCC/N=C(\N)N[N+](=O)[O-])C(=O)N[C@@H](CC(C)C)C(N)=O)cc1`, the EC50 result is recorded as “Not Active”.
As to `CC(C)C[C@H](NC(=O)[C@H](CCC/N=C(\N)N[N+](=O)[O-])NC(=O)c1ccc(C#N)cc1)C(N)=O`, the EC50 entry is listed as “Not Active”.
For `CC(=O)N[C@@H](CCC/N=C(\N)N[N+](=O)[O-])C(=O)N[C@@H](CC(C)C)C(N)=O` (Ac-[Arg(NO2)]-Leu-NH2), the EC50 result was “Not Active”.

The species entered for another experiment is Rattus norvegicus. The experiment is described as follows: In vitro vasorelaxant activity in male wistar rat thoracic aorta by classical rat aorta relaxation assay. Format: functional.
Take `COc1ccc(C(=O)N[C@@H](CCC/N=C(\N)N[N+](=O)[O-])C(=O)N[C@@H](CC(C)C)C(N)=O)cc1`: the midpoint of the response, the EC50, lay at 69 µM.
The compound `CC(C)C[C@H](NC(=O)[C@H](CCC/N=C(\N)N[N+](=O)[O-])NC(=O)c1ccc(OC(F)(F)F)cc1)C(N)=O` displayed an EC50 of 20 µM.
As to `CC(C)C[C@H](NC(=O)[C@H](CCC/N=C(\N)N[N+](=O)[O-])NC(=O)c1ccccc1)C(N)=O` (Bz-[Arg(NO2)]-Leu-NH2), the EC50 turned out to be 400 µM.
On the same count and under the same terms, for `CC[C@H](C)[C@H](NC(=O)[C@H](CC(C)C)NC(=O)[C@@H](N)CO)C(=O)NCC(=O)N[C@@H](CCCNC(=N)N)C(=O)N[C@@H](CC(C)C)C(N)=O` (H-SLIGRL-NH2) the value was 4 µM.
